Data reported in US9510593B2, “S-benzylthiouracil compounds and methods of enhancing plant root growth” (Valent BioSciences Corporation, priority 2014, dated 2016).
“Also recorded” adds a separate entry of the source.

Experiments:
Format in all cases: in vivo
[1] = system: rice; test: Rice pouch assay: growth of primary root and shoot; conditions: for Shoot Length: control 1.7
Procedure: Seeds were placed in germination pouches consisting of germination paper as an insert in a gas-permeable 16×14 cm plastic pouch (CYG Pouch; Mega International, St. Paul, Minn.). In pouch solution evaluation, S-Benzylthiouracil compounds or their salts were dissolved in a small volume of DMSO and added to sterile water with a maximum of 0.5% v/v DMSO at final dilution. The S-Benzylthiouracil solution was subsequently pipetted into the growth pouch, followed by the addition of seeds of the crop being tested. The pouches were arranged in a randomized complete block design in growth racks and placed in 19-liter polycarbonate food storage containers (Rubbermaid Commercial Products, Winchester, Va.). The sealed containers were held in an upright growth cabinet maintained at 25 C with a 12 hour light: 12 hour dark photoperiod. For rice, plants were harvested at 6 d, while in mungbean and corn, the plants were harvested at 4 d post sowing. Measurements were performed on the primary root and shoot of each seedling. The growth of the primary root of rice was examined in the pouch assay system. The results of the testing, presented as percent change in root length across all S-Benzylthiouracil compounds, are shown below.

[2] = system: Maize (cultivar; Kuromochi); test: Maize growth enhancement by seed treatment under low temperature stress; conditions: for Average weight of the shoots: 2.5° C. for 4 days, 18th day after seeding, control 1.50
Procedure: Maize seeds (cultivar; Kuromochi) were treated with Compound 1 at dose rates of 0.005 gram to 0.5 gram per 100 kilogram seeds. The seeds were sown into a soil pot (one seed/pot) and then cultivated in a growth chamber at a temperature of 27° C. and a day length of 16 hours for 10 days. On the 10th day after seeding, the plants were subjected to a temperature of 2.5° C. for 4 days at a day length of 16 hours. Following the stress treatment, they were cultivated for an additional 4 days in a growth chamber at a temperature of 27° C. and a day length of 16 hours. On the 18th day after seeding, the fresh shoot weight of each plant was measured for 5 replicates.

[3] = system: Wheat (cultivar; Apogee); test: Wheat yield enhancement by foliar spray treatment under high temperature stress; conditions: for Average fresh weight of young ears: 36° C./32° C. for 7 days, 56th day after seeding, control 1.68
Procedure: Wheat (cultivar; Apogee) was sown in soil pots (5 seeds/pot) and then cultivated in a growth chamber at a temperature of 18° C. (day)/15° C. (night) and at a day length of 12 hours for 28 days. Plants were thinned to 3 plants/pot. On the 28th day after sowing, the plants were treated by foliar spray application with a solution containing the test compound. On the 2nd day after the spray application the plants were subjected to high temperatures for 7 days in a growth chamber 36° C. (day)/32° C. (night) and a day length of 12 hours. After the stress treatment, the plants were cultivated in a growth chamber at a temperature of 18° C. (day)/15° C. (night) and a day length of 12 hours. On the 56th day after seeding, the total fresh weight of the young ears from the 3 plants in each pot was measured (n=8 replicates).
Wheat seeds (cultivar; Apogee) were sown in soil pots (5 seeds/pot) and then cultivated in a growth chamber at a temperature of 18° C. (day)/15° C. (night) and at a day length of 12 hours for 28 days. The wheat plants on the 28th day after seeding were treated by foliar spray application with a solution containing the Compound 1 at concentrations of 1 ppm to 100 ppm. As an untreated control group, the plants were treated with blank solution without Compound 1. Three seedlings per pot were used for the test. On the 2nd day after the spray application, the plants were treated with high temperature for 7 days in a growth chamber at a temperature of 36° C. (day)/32° C. (night) and a day length of 12 hours. After the stress treatment, the plants were cultivated in a growth chamber at a temperature of 18° C. (day)/15° C. (night) and a day length of 12 hours. On the 56th day after seeding, total fresh weight of young seed heads from 3 plants in each pot were measured for 8 replicates of each treatment.

[4] = system: mungbean; test: Mungbean pouch assay: growth of primary root and shoot; conditions: for Shoot Length / Root Length: 4 days after sowing in growth pouches; for Shoot Length: control 4.8; for Root Length: control 8.8
Procedure: Seeds were placed in germination pouches consisting of germination paper as an insert in a gas-permeable 16×14 cm plastic pouch (CYG Pouch; Mega International, St. Paul, Minn.). In pouch solution evaluation, S-Benzylthiouracil compounds or their salts were dissolved in a small volume of DMSO and added to sterile water with a maximum of 0.5% v/v DMSO at final dilution. The S-Benzylthiouracil solution was subsequently pipetted into the growth pouch, followed by the addition of seeds of the crop being tested. The pouches were arranged in a randomized complete block design in growth racks and placed in 19-liter polycarbonate food storage containers (Rubbermaid Commercial Products, Winchester, Va.). The sealed containers were held in an upright growth cabinet maintained at 25 C with a 12 hour light: 12 hour dark photoperiod. For rice, plants were harvested at 6 d, while in mungbean and corn, the plants were harvested at 4 d post sowing. Measurements were performed on the primary root and shoot of each seedling. The growth of the primary root of mungbean was examined in the pouch assay system. The results of the testing, presented as percent change in root length across all the free S-Benzylthiouracil compounds is shown below. The following S-Benzylthiouracil compounds have benzyl substitutions as defined in Table 11 below.

Oc1ccnc(SCc2cccc(F)c2)n1 [Compound 1, S-(3-Fluorobenzyl)-2-thiouracil]
Root Length ([1]; 10 mg/liter, 6 days after sowing, untreated control 9.67): 10.80 cm | Root Length ([1]; 30 mg/liter, 6 days after sowing, untreated control 9.67): 10.34 cm | Shoot Length ([1]; 7.5 ppm, 6 days after treatment): 2.2 cm | Root Length ([1]; 7.5 ppm, 6 days after treatment, control 5.1): 7.8 cm | Percent Change in Primary Root Length in Rice ([1]; 10 ppm (10 mg/L), benzyl ring substitutions, vs control): 19.8% | Percent Change (rice primary root growth) ([1]; 10 ppm, compounds and water-soluble salts, 6 days after sowing): 19.8% | Shoot Length ([1]; 30 ppm, 6 days after treatment): 2.2 cm | Root Length ([1]; 30 ppm, 6 days after treatment, control 5.1): 7.3 cm | Shoot Length ([1]; 100 ppm, 6 days after treatment): 1.9 cm | Root Length ([1]; 100 ppm, 6 days after treatment, control 5.1): 5.2 cm | change in vivo at 10 ppm ([1]; Oryza sativa, 144 h, 10 ppm (10 mg/L), benzyl ring substitutions, vs control, read-out: Percent Change in Primary Root Length in Rice): 19.8% | Effect on rice root growth, in words ([1]; rice pouch assay, compared to control): greatest increases in root length compared to all of the other tested compounds; also recorded: dose-dependent increase in root length | Average weight of the shoots ([2]; 0.005 grams/100-kg seeds): 1.78 gram/plant | Percent (shoot weight, untreated control = 100) ([2]; 0.005 grams/100-kg seeds, low temperature stress): 119% | Average weight of the shoots ([2]; 0.05 grams/100-kg seeds): 2.06 gram/plant | Percent (shoot weight, untreated control = 100) ([2]; 0.05 grams/100-kg seeds, low temperature stress): 138% | Average weight of the shoots ([2]; 0.5 grams/100-kg seeds): 1.85 gram/plant | Percent (shoot weight, untreated control = 100) ([2]; 0.5 grams/100-kg seeds, low temperature stress): 124% | Average fresh shoot weight versus untreated control, in words ([2]; across 0.005 to 0.5 gram per 100 kilogram seeds, low temperature stress): larger than that of the untreated control | Average fresh weight of young seed heads versus untreated controls, in words ([3]; 1 ppm to 100 ppm foliar spray, high temperature stress): larger than those of the untreated controls | Average fresh weight of young ears ([3]; foliar spray 1 ppm): 1.71 grams/3 plants | Percent (untreated control = 100) ([3]; foliar spray 1 ppm, high temperature stress): 105% | Average fresh weight of young ears ([3]; foliar spray 10 ppm): 1.70 grams/3 plants | Percent (untreated control = 100) ([3]; foliar spray 10 ppm, high temperature stress): 104% | Average fresh weight of young ears ([3]; foliar spray 100 ppm): 1.87 grams/3 plants | Percent (untreated control = 100) ([3]; foliar spray 100 ppm, high temperature stress): 115% | Shoot Length ([4]; 1 ppm): 5.5 cm | Root Length ([4]; 1 ppm): 9.9 cm | Percent Change in Primary Root Length of Mungbean ([4]; 10 ppm (10 mg/L), benzyl ring substitutions): 10.4% | Shoot Length ([4]; 10 ppm): 5.2 cm | Root Length ([4]; 10 ppm): 10.6 cm | Shoot Length ([4]; 25 ppm): 4.7 cm | Root Length ([4]; 25 ppm): 9.5 cm | Shoot Length ([4]; 50 ppm): 3.9 cm | Root Length ([4]; 50 ppm): 5.8 cm | change in vivo at 10 ppm ([4]; 96 h, 10 ppm (10 mg/L), benzyl ring substitutions, read-out: Percent Change in Primary Root Length of Mungbean): 10.4% | Effect on mungbean root (and shoot) growth, in words ([4]; mungbean pouch assay): only a moderate increase in root growth
